The experiment has as its system HRE-bla ME-180 cells. As to the kind of experiment: Reporter gene assay (HRE-bla ME-180 HIF reporter, GeneBLAzer). The experiment is classed as cell-based, human. As to conditions: for EC50: 24 hour normoxia. The method in brief: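 A FRET β-lactamase readout of HIF transcription was used. After compound treatment in 0.3% DMSO/media under normoxic conditions, 20 μl of 6× LiveBLAzer-FRET B/G (CCF4-AM) substrate was added. Plates sat 3 hr at room temperature in the dark and were read at 409 Ex/460Em and 409Ex/530Em on a Synergy 2. Inhibition was compared against DMSO vehicle controls, with chetomin as positive control.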
(In general: Reporter assays use an easily measured gene product as a stand-in for the process of interest.)

The structures appear in SMILES notation. Bridge positions count the residues as written; N and C are the ends. Square brackets hold non-standard residues; d marks the D form. Peptide text beside a SMILES is read from it. S5 = C=CCCC[C@](C)(N)C(=O)O; Nle = CCCC[C@H](N)C(=O)O A value given as a limit tells only on which side of the number the result lay.

A word on the EC50: it is the concentration giving half of the maximal effect.

Turning to `CCCC[C@H](NC(=O)[C@H](CC(C)C)NC(=O)[C@@H](NC(=O)[C@H](CCC(=O)O)NC(=O)[C@H](CCC(=O)O)NC(=O)[C@H](CC(=O)O)NC(=O)[C@@H](NC(=O)[C@H](Cc1ccccc1)NC(C)=O)[C@@H](C)CC)C(C)C)C(=O)N[C@@]1(C)CCCC=CCCC[C@@](C)(C(=O)N[C@@H](CCC(=O)O)C(=O)N[C@@H](C)C(=O)N[C@@H](CC(C)C)C(=O)N[C@@H](CC(=O)O)C(=O)N[C@@H](CCCNC(=N)N)C(=O)N[C@H](C(N)=O)[C@@H](C)CC)NC(=O)[C@H]([C@@H](C)CC)NC(=O)[C@H](C(C)C)NC(=O)[C@H](CC(C)C)NC1=O` [SP-38] (Ac-FIDEEVL[Nle][S5]LVI[S5]EALDRI-NH2; staple 9-13), the “18 h Avg % max inhibition at top conc (HIF Rptr-24 hrs normoxia) (μM)” value (shortened to “18 h Avg % max inhibition at top conc”) was “++++ (≥50: ++++)” and the EC50 is 15 to 30 µM.

Take `CCCC[C@H](NC(=O)[C@H](CC(C)C)NC(=O)[C@@H](NC(=O)[C@H](CCC(=O)O)NC(=O)[C@H](CCC(=O)O)NC(=O)[C@H](CC(=O)O)NC(=O)[C@@H](NC(=O)[C@H](Cc1ccccc1)NC(C)=O)[C@@H](C)CC)C(C)C)C(=O)N[C@@]1(C)CCCC=CCCC[C@@](C)(C(=O)N[C@@H](CCCC)C(=O)N[C@@H](CCC(=O)O)C(=O)N[C@@H](CC(C)C)C(=O)N[C@@H](CC(=O)O)C(=O)N[C@@H](CCCNC(=N)N)C(=O)N[C@H](C(N)=O)[C@@H](C)CC)NC(=O)[C@H]([C@@H](C)CC)NC(=O)[C@H](C(C)C)NC(=O)[C@H](CC(C)C)NC1=O` [SP-39] (Ac-FIDEEVL[Nle][S5]LVI[S5][Nle]ELDRI-NH2; staple 9-13): the “18 h Avg % max inhibition at top conc” value is reported as “+++ (≤25 but <50: +++)” and the EC50 was 15 to 30 µM.

In the case of `CCCC[C@H](NC(=O)[C@H](CC(C)C)NC(=O)[C@@H](NC(=O)[C@H](CCC(=O)O)NC(=O)[C@H](CCC(=O)O)NC(=O)[C@H](CC(=O)O)NC(=O)[C@@H](NC(=O)[C@H](Cc1ccccc1)NC(C)=O)[C@@H](C)CC)C(C)C)C(=O)N[C@@]1(C)CCCC=CCCC[C@@](C)(C(=O)N[C@@H](CCCC)C(=O)N[C@@H](C)C(=O)N[C@@H](CCC(=O)O)C(=O)N[C@@H](CC(=O)O)C(=O)N[C@@H](CCCNC(=N)N)C(=O)N[C@H](C(N)=O)[C@@H](C)CC)NC(=O)[C@H]([C@@H](C)CC)NC(=O)[C@H](C(C)C)NC(=O)[C@H](CC(C)C)NC1=O` [SP-40] (Ac-FIDEEVL[Nle][S5]LVI[S5][Nle]AEDRI-NH2; staple 9-13), the “18 h Avg % max inhibition at top conc” value is listed as “+ (<10: +)” and the EC50 is more than 30 µM.

Take `CCCC[C@H](NC(=O)[C@H](CC(C)C)NC(=O)[C@@H](NC(=O)[C@H](CCC(=O)O)NC(=O)[C@H](CCC(=O)O)NC(=O)[C@H](CC(=O)O)NC(=O)[C@@H](NC(=O)[C@H](Cc1ccccc1)NC(C)=O)[C@@H](C)CC)C(C)C)C(=O)N[C@@]1(C)CCCC=CCCC[C@@](C)(C(=O)N[C@@H](CCCC)C(=O)N[C@@H](C)C(=O)N[C@@H](CC(C)C)C(=O)N[C@@H](CC(=O)O)C(=O)N[C@@H](CCC(=O)O)C(=O)N[C@H](C(N)=O)[C@@H](C)CC)NC(=O)[C@H]([C@@H](C)CC)NC(=O)[C@H](C(C)C)NC(=O)[C@H](CC(C)C)NC1=O` [SP-41] (Ac-FIDEEVL[Nle][S5]LVI[S5][Nle]ALDEI-NH2; staple 9-13): the “18 h Avg % max inhibition at top conc” value was “++++ (≥50: ++++)” and the EC50 lay within 15 to 30 µM.

As to `CCCC[C@H](NC(=O)[C@H](CC(C)C)NC(=O)[C@@H](NC(=O)[C@H](CCC(=O)O)NC(=O)[C@H](CCC(=O)O)NC(=O)[C@H](CC(=O)O)NC(=O)[C@@H](NC(=O)[C@H](Cc1ccccc1)NC(C)=O)[C@@H](C)CC)C(C)C)C(=O)N[C@@]1(C)CCCC=CCCC[C@@](C)(C(=O)N[C@@H](CCCC)C(=O)N[C@@H](C)C(=O)N[C@@H](CC(C)C)C(=O)N[C@@H](CC(=O)O)C(=O)N[C@@H](CCCNC(=N)N)C(=O)N[C@@H](CCC(=O)O)C(N)=O)NC(=O)[C@H]([C@@H](C)CC)NC(=O)[C@H](C(C)C)NC(=O)[C@H](CC(C)C)NC1=O` [SP-42] (Ac-FIDEEVL[Nle][S5]LVI[S5][Nle]ALDRE-NH2; staple 9-13), the “18 h Avg % max inhibition at top conc” value is recorded as “++ (≤10 but <25: ++)” and the EC50 was more than 30 µM.

`CCCC[C@H](NC(=O)[C@H](CC(C)C)NC(=O)[C@@H](NC(=O)[C@H](CCC(=O)O)NC(=O)[C@H](CCC(=O)O)NC(=O)[C@H](CC(=O)O)NC(=O)[C@@H](NC(=O)[C@H](Cc1ccccc1)NC(C)=O)[C@@H](C)CC)C(C)C)C(=O)N[C@@]1(C)CCCC=CCCC[C@@](C)(C(=O)N[C@@H](CCCC)C(=O)N[C@@H](C)C(=O)N[C@@H](CC(C)C)C(=O)N[C@@H](CC(=O)O)C(=O)N[C@@H](CCCNC(=N)N)C(=O)N[C@H](C(=O)N[C@@H](CCC(=O)O)C(N)=O)[C@@H](C)CC)NC(=O)[C@H]([C@@H](C)CC)NC(=O)[C@H](C(C)C)NC(=O)[C@H](CC(C)C)NC1=O` [SP-43] (Ac-FIDEEVL[Nle][S5]LVI[S5][Nle]ALDRIE-NH2; staple 9-13): the “18 h Avg % max inhibition at top conc” value is “+++ (≤25 but <50: +++)” and the EC50 was more than 30 µM.

In the case of `CCCC[C@H](NC(=O)[C@H](CC(C)C)NC(=O)[C@@H](NC(=O)[C@H](CCC(=O)O)NC(=O)[C@H](CCC(=O)O)NC(=O)[C@H](CC(=O)O)NC(=O)[C@@H](NC(=O)[C@H](CO)NC(C)=O)[C@@H](C)CC)C(C)C)C(=O)N[C@@]1(C)CCCC=CCCC[C@@](C)(C(=O)N[C@@H](CCCC)C(=O)N[C@@H](C)C(=O)N[C@@H](CC(C)C)C(=O)N[C@@H](CC(=O)O)C(=O)N[C@@H](CCCNC(=N)N)C(=O)N[C@H](C(N)=O)[C@@H](C)CC)NC(=O)[C@H]([C@@H](C)CC)NC(=O)[C@H](C(C)C)NC(=O)[C@H](CC(C)C)NC1=O` [SP-44] (Ac-SIDEEVL[Nle][S5]LVI[S5][Nle]ALDRI-NH2; staple 9-13), the “18 h Avg % max inhibition at top conc” value is listed as “+++ (≤25 but <50: +++)” and the EC50 was in the range of 15 to 30 µM.

`CCCC[C@H](NC(=O)[C@H](CC(C)C)NC(=O)[C@@H](NC(=O)[C@H](CCC(=O)O)NC(=O)[C@H](CCC(=O)O)NC(=O)[C@H](CC(=O)O)NC(=O)[C@H](CO)NC(=O)[C@H](Cc1ccccc1)NC(C)=O)C(C)C)C(=O)N[C@@]1(C)CCCC=CCCC[C@@](C)(C(=O)N[C@@H](CCCC)C(=O)N[C@@H](C)C(=O)N[C@@H](CC(C)C)C(=O)N[C@@H](CC(=O)O)C(=O)N[C@@H](CCCNC(=N)N)C(=O)N[C@H](C(N)=O)[C@@H](C)CC)NC(=O)[C@H]([C@@H](C)CC)NC(=O)[C@H](C(C)C)NC(=O)[C@H](CC(C)C)NC1=O` [SP-45] (Ac-FSDEEVL[Nle][S5]LVI[S5][Nle]ALDRI-NH2; staple 9-13): the “18 h Avg % max inhibition at top conc” value is listed as “++ (≤10 but <25: ++)” and the 50% effective concentration (EC50) is more than 30 µM.

On to `CCCC[C@H](NC(=O)[C@H](CC(C)C)NC(=O)[C@@H](NC(=O)[C@H](CCC(=O)O)NC(=O)[C@H](CCC(=O)O)NC(=O)[C@H](CO)NC(=O)[C@@H](NC(=O)[C@H](Cc1ccccc1)NC(C)=O)[C@@H](C)CC)C(C)C)C(=O)N[C@@]1(C)CCCC=CCCC[C@@](C)(C(=O)N[C@@H](CCCC)C(=O)N[C@@H](C)C(=O)N[C@@H](CC(C)C)C(=O)N[C@@H](CC(=O)O)C(=O)N[C@@H](CCCNC(=N)N)C(=O)N[C@H](C(N)=O)[C@@H](C)CC)NC(=O)[C@H]([C@@H](C)CC)NC(=O)[C@H](C(C)C)NC(=O)[C@H](CC(C)C)NC1=O` [SP-46] (Ac-FISEEVL[Nle][S5]LVI[S5][Nle]ALDRI-NH2; staple 9-13), for which the “18 h Avg % max inhibition at top conc” value is given as “+++ (≤25 but <50: +++)” and the EC50 is 15 to 30 µM.

Take `CCCC[C@H](NC(=O)[C@H](CC(C)C)NC(=O)[C@@H](NC(=O)[C@H](CO)NC(=O)[C@H](CCC(=O)O)NC(=O)[C@H](CC(=O)O)NC(=O)[C@@H](NC(=O)[C@H](Cc1ccccc1)NC(C)=O)[C@@H](C)CC)C(C)C)C(=O)N[C@@]1(C)CCCC=CCCC[C@@](C)(C(=O)N[C@@H](CCCC)C(=O)N[C@@H](C)C(=O)N[C@@H](CC(C)C)C(=O)N[C@@H](CC(=O)O)C(=O)N[C@@H](CCCNC(=N)N)C(=O)N[C@H](C(N)=O)[C@@H](C)CC)NC(=O)[C@H]([C@@H](C)CC)NC(=O)[C@H](C(C)C)NC(=O)[C@H](CC(C)C)NC1=O` [SP-47] (Ac-FIDESVL[Nle][S5]LVI[S5][Nle]ALDRI-NH2; staple 9-13): the “18 h Avg % max inhibition at top conc” value is recorded as “++++ (≥50: ++++)” and the EC50 lay within 5 to 15 µM.

In the case of `CCCC[C@H](NC(=O)[C@H](CC(C)C)NC(=O)[C@H](CO)NC(=O)[C@H](CCC(=O)O)NC(=O)[C@H](CCC(=O)O)NC(=O)[C@H](CC(=O)O)NC(=O)[C@@H](NC(=O)[C@H](Cc1ccccc1)NC(C)=O)[C@@H](C)CC)C(=O)N[C@@]1(C)CCCC=CCCC[C@@](C)(C(=O)N[C@@H](CCCC)C(=O)N[C@@H](C)C(=O)N[C@@H](CC(C)C)C(=O)N[C@@H](CC(=O)O)C(=O)N[C@@H](CCCNC(=N)N)C(=O)N[C@H](C(N)=O)[C@@H](C)CC)NC(=O)[C@H]([C@@H](C)CC)NC(=O)[C@H](C(C)C)NC(=O)[C@H](CC(C)C)NC1=O` [SP-48] (Ac-FIDEESL[Nle][S5]LVI[S5][Nle]ALDRI-NH2; staple 9-13), the “18 h Avg % max inhibition at top conc” value is given as “+++ (≤25 but <50: +++)” and the EC50 fell in the range of 15 to 30 µM.

`CCCC[C@H](NC(=O)[C@H](CO)NC(=O)[C@@H](NC(=O)[C@H](CCC(=O)O)NC(=O)[C@H](CCC(=O)O)NC(=O)[C@H](CC(=O)O)NC(=O)[C@@H](NC(=O)[C@H](Cc1ccccc1)NC(C)=O)[C@@H](C)CC)C(C)C)C(=O)N[C@@]1(C)CCCC=CCCC[C@@](C)(C(=O)N[C@@H](CCCC)C(=O)N[C@@H](C)C(=O)N[C@@H](CC(C)C)C(=O)N[C@@H](CC(=O)O)C(=O)N[C@@H](CCCNC(=N)N)C(=O)N[C@H](C(N)=O)[C@@H](C)CC)NC(=O)[C@H]([C@@H](C)CC)NC(=O)[C@H](C(C)C)NC(=O)[C@H](CC(C)C)NC1=O` [SP-49] (Ac-FIDEEVS[Nle][S5]LVI[S5][Nle]ALDRI-NH2; staple 9-13): the “18 h Avg % max inhibition at top conc” value is recorded as “++++ (≥50: ++++)” and the concentration giving a half-maximal response (EC50) is 5 to 15 µM.

The values are drawn from patent US20190225650A1, “PEPTIDOMIMETIC MACROCYCLES AND USE THEREOF IN REGULATING HIF1ALPHA” (AILERON THERAPEUTICS, INC., priority 2013, published 2019).
